pIC50: −log10 of the molar value.
Legend:
human Chk1 kinase = biological target: T1, human Chk1 kinase (Homo sapiens, UniProt O14757); test: biochemical
T1 sequence (O14757 1-476): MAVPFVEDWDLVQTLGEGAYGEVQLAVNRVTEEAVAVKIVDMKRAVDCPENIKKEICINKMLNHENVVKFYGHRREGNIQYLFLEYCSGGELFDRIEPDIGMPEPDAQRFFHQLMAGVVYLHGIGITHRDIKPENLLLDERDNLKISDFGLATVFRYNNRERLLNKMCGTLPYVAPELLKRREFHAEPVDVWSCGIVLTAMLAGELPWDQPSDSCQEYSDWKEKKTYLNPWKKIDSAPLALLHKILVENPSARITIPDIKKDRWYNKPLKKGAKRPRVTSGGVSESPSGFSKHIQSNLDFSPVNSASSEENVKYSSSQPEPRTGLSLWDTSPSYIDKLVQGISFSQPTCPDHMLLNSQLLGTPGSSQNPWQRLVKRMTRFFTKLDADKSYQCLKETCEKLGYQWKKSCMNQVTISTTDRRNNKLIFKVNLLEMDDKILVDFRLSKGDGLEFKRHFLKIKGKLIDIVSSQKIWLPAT

human Chk2 kinase = human Chk2 kinase (Homo sapiens, UniProt O96017); test: biochemical
Sequence of human Chk2 kinase (O96017 whole entry): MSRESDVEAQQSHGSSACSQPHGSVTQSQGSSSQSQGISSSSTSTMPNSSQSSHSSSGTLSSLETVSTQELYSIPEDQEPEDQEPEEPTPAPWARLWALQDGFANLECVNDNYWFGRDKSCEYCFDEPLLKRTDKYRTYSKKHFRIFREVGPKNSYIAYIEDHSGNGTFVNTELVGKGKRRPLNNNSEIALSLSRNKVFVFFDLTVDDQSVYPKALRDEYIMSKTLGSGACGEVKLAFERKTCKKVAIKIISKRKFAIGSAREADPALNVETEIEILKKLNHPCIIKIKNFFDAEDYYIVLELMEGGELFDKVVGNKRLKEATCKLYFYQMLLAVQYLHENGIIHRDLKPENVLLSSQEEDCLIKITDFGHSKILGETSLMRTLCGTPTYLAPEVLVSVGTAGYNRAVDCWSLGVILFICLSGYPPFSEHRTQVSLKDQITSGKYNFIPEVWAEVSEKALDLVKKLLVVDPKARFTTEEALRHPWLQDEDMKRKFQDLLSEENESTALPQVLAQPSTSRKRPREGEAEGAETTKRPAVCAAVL

| pIC50 (human Chk1 kinase) | pIC50 (human Chk2 kinase) | SMILES |
| --- | --- | --- |
| 7.00 to 7.50 | 4.00 to 5.00 | Cc1ccc(-n2cnc(Nc3cnc(C#N)cn3)c2)cc1N1CC[C@@H](N(C)C)C1 [Example 58, (R)-5-((1-(3-(3-(Dimethylamino)pyrrolidin-1-yl)-4-methylphenyl)-1H-imidazol-4-yl)amino)pyrazine-2-carbonitrile] |
| 7.00 to 7.50 | < 4.00 | C[C@@H]1CCN1C1CCN(c2ccc(-n3cnc(Nc4cnc(C#N)cn4)c3)cc2)C1 (single isomer, unassigned) [Example 136] |
| 7.00 to 7.50 | < 4.00 | N#Cc1cnc(Nc2cn(-c3cccc(N4CCN5CCC[C@H]5C4)c3)cn2)cn1 [Example 35, (S)-5-((1-(3-(Hexahydropyrrolo[1,2-a]pyrazin-2(1H)-yl)phenyl)-1H-imidazol-4-yl)amino)pyrazine-2-carbonitrile] |
| 7.00 to 7.50 | 4.00 to 5.00 | CN1C[C@@H](F)[C@@H](OCc2ccc(-n3cnc(Nc4cnc(C#N)cn4)c3)cc2)C1 [Example 146, 5-((1-(4-((((3S,4R)-4-fluoro-1-Methylpyrrolidin-3-yl)oxy)methyl)phenyl)-1H-imidazol-4-yl)amino)pyrazine-2-carbonitrile] |
| 7.00 to 7.50 | 4.00 to 5.00 | CN1CCOC(c2ccc(-n3cnc(Nc4cnc(C#N)cn4)c3)cc2)C1 (single isomer, unassigned) [Example 105, 5-((1-(4-(4-Methylmorpholin-2-yl)phenyl)-1H-imidazol-4-yl)amino)pyrazine-2-carbonitrile] |
| 7.00 to 7.50 | 4.00 to 5.00 | CN1CC2(CC(Oc3ccc(-n4cnc(Nc5cnc(C#N)cn5)c4)cc3)C2)C1 [Example 178, 5-((1-(4-((2-Methyl-2-azaspiro[3.3]heptan-6-yl)oxy)phenyl)-1H-imidazol-4-yl)amino)pyrazine-2-carbonitrile] |
| 7.00 to 7.50 | 4.00 to 5.00 | COc1cc(N(C)CC2CCN(C)CC2)ccc1-n1cnc(Nc2cnc(C#N)cn2)c1 [Example 36, 5-((1-(2-Methoxy-4-(methyl((1-methylpiperidin-4-yl)methyl)amino)phenyl)-1H-imidazol-4-yl)amino)pyrazine-2-carbonitrile] |
| 7.50 to 8.00 | < 4.00 | N#Cc1cnc(Nc2cn(-c3ccc(N4CC[C@@H](NCCC(F)(F)F)C4)cn3)cn2)cn1 [Example 93, (R)-5-((1-(5-(3-((3,3,3-Trifluoropropyl)amino)pyrrolidin-1-yl)pyridin-2-yl)-1H-imidazol-4-yl)amino)pyrazine-2-carbonitrile] |
| 7.50 to 8.00 | < 4.00 | CC1(C)CN(C2CCN(c3ccc(-n4cnc(Nc5cnc(C#N)cn5)c4)cc3)C2)C1 (single isomer, unassigned) [Example 123, 5-((1-(4-(3-(3,3-Dimethylazetidin-1-yl)pyrrolidin-1-yl)phenyl)-1H-imidazol-4-yl)amino)pyrazine-2-carbonitrile] |
| 7.00 to 7.50 | < 4.00 | N#Cc1cnc(Nc2cn(-c3cccc(N4CCC(N)C(F)(F)C4)c3)cn2)cn1 (single isomer, unassigned) [Example 166, 5-((1-(3-(4-Amino-3,3-difluoropiperidin-1-yl)phenyl)-1H-imidazol-4-yl)amino)pyrazine-2-carbonitrile] |
| 7.50 to 8.00 | 4.00 to 5.00 | C[C@@H]1CN(C)CCN1c1ccc(-n2cnc(Nc3cnc(C#N)cn3)c2)cc1 [Example 16, (R)-5-((1-(4-(2,4-Dimethylpiperazin-1-yl)phenyl)-1H-imidazol-4-yl)amino)pyrazine-2-carbonitrile] |
| 7.00 to 7.50 | 5.00 to 6.00 | CN(C)[C@@H]1CCN(c2ccc(-n3cnc(Nc4cnc(C#N)cn4)c3)cc2C(F)(F)F)C1 [Example 70, (R)-5-((1-(4-(3-(Dimethylamino)pyrrolidin-1-yl)-3-(trifluoromethyl)phenyl)-1H-imidazol-4-yl)amino)pyrazine-2-carbonitrile] |
| > 8.00 | 4.00 to 5.00 | COc1cc(N2CCN3CCC[C@H]3C2)ccc1-n1cnc(Nc2cnc(C#N)cn2)c1 [Example 30, (S)-5-((1-(4-(Hexahydropyrrolo[1,2-a]pyrazin-2(1H)-yl)-2-methoxyphenyl)-1H-imidazol-4-yl)amino)pyrazine-2-carbonitrile] |
| 6.50 to 7.00 | < 4.00 | CC(C)N1CCN(c2ccc(-n3cnc(Nc4cnc(C#N)cn4)c3)cc2)CC1 [Example 186, 5-((1-(4-(4-Isopropylpiperazin-1-yl)phenyl)-1H-imidazol-4-yl)amino)pyrazine-2-carbonitrile] |
| 7.00 to 7.50 | < 4.00 | CN1C[C@H](OCc2ccc(-n3cnc(Nc4cnc(C#N)cn4)c3)cc2)[C@@H](F)C1 [Example 24, 5-((1-(4-((((3S,4S)-4-Fluoro-1-methylpyrrolidin-3-yl)oxy)methyl)phenyl)-1H-imidazol-4-yl)amino)pyrazine-2-carbonitrile] |
| 7.50 to 8.00 | < 4.00 | CN1CCC12CCN(c1ccc(-n3cnc(Nc4cnc(C#N)cn4)c3)cc1)C2 (single isomer, unassigned) [Example 127, 5-((1-(4-(1-Methyl-1,6-diazaspiro[3.4]octan-6-yl)phenyl)-1H-imidazol-4-yl)amino)pyrazine-2-carbonitrile] |
| 7.00 to 7.50 | 4.00 to 5.00 | COc1cc(OC2CC3(C2)CN(C)C3)ccc1-n1cnc(Nc2cnc(C#N)cn2)c1 [Example 180, 5-((1-(2-Methoxy-4-((2-methyl-2-azaspiro[3.3]heptan-6-yl)oxy)phenyl)-1H-imidazol-4-yl)amino)pyrazine-2-carbonitrile] |
| 7.00 to 7.50 | 4.00 to 5.00 | COc1cc(CN2CCC(F)(F)CC2)ccc1-n1cnc(Nc2cnc(C#N)cn2)c1 [Example 172, 5-((1-(4-((4,4-Difluoropiperidin-1-yl)methyl)-2-methoxyphenyl)-1H-imidazol-4-yl)amino)pyrazine-2-carbonitrile] |
| 6.00 to 6.50 | < 4.00 | Cc1cc(CN2CC[C@@H](F)C2)cc(C)c1-n1cnc(Nc2cnc(C#N)cn2)c1 [Example 57, (R)-5-((1-(4-((3-Fluoropyrrolidin-1-yl)methyl)-2,6-dimethylphenyl)-1H-imidazol-4-yl)amino)pyrazine-2-carbonitrile] |
| 7.00 to 7.50 | 4.00 to 5.00 | COc1cc(CN2CCOCC2)ccc1-n1cnc(Nc2cnc(C#N)cn2)c1 [Example 173, 5-((1-(2-Methoxy-4-(morpholinomethyl)phenyl)-1H-imidazol-4-yl)amino)pyrazine-2-carbonitrile] |
| > 8.00 | 4.00 to 5.00 | CC(C)C1CN(C2CCN(c3ccc(-n4cnc(Nc5cnc(C#N)cn5)c4)cc3)C2)C1 (single isomer, unassigned) [Example 133, 5-((1-(4-(3-(3-Isopropylazetidin-1-yl)pyrrolidin-1-yl)phenyl)-1H-imidazol-4-yl)amino)pyrazine-2-carbonitrile] |
| > 8.00 | 5.00 to 6.00 | COc1cc(N2CC[C@@H](N3CCCC3)C2)ccc1-n1cnc(Nc2cnc(C#N)cn2)c1 [Example 51, (R)-5-((1-(4-([1,3′-Bipyrrolidin]-1′-yl)-2-methoxyphenyl)-1H-imidazol-4-yl)amino)pyrazine-2-carbonitrile] |
| 7.50 to 8.00 | 4.00 to 5.00 | CCN1CCC(Nc2ccc(-n3cnc(Nc4cnc(C#N)cn4)c3)c(OC)c2)CC1 [Example 41, 5-((1-(4-((1-Ethylpiperidin-4-yl)amino)-2-methoxyphenyl)-1H-imidazol-4-yl)amino)pyrazine-2-carbonitrile] |

From patent US20260132140A1, “IMIDAZOLYL-AMINO-PYRAZINE-CARBONITRILS AS CHK-1 INHIBITORS” (BenevolentAI Bio Limited, priority 2022, published 2026)
